Molecular target: T1, TRAF1
T1 construct: TRAF1 protein amine-coupled to carboxylated SPR chip
Assay: surface plasmon resonance, TRAF1 immobilized
Type: binding
Conditions: PBST running buffer; analyte 0-500 μM; Fc2-Fc1 double-referenced

Kd: 246 µM
SMILES: N[C@@H](CCS)C(=O)O [L-homocysteine]
